# Measured values from ChEMBL document CHEMBL4507274 (2021).
# Legend:
# [1] = biological target: Cyclin-dependent kinase 2 (Homo sapiens) (UniProt P24941); details: Compound concentration 100.0 nM
# [2] = biological target: Dual specificity mitogen-activated protein kinase kinase 5 (Homo sapiens) (UniProt Q13163); details: Compound concentration 100.0 nM
# [3] = biological target: Interferon-induced, double-stranded RNA-activated protein kinase (Homo sapiens) (UniProt P19525); details: Compound concentration 100.0 nM
# [4] = biological target: Wee1-like protein kinase (Homo sapiens) (UniProt P30291); details: Compound concentration 100.0 nM
# [5] = biological target: Mitogen-activated protein kinase 14 (Homo sapiens) (UniProt Q16539); details: Compound concentration 100.0 nM
# [6] = biological target: Platelet-derived growth factor receptor beta (Homo sapiens) (UniProt P09619); details: Compound concentration 100.0 nM
# [7] = biological target: Death-associated protein kinase 2 (Homo sapiens) (UniProt Q9UIK4); details: Compound concentration 100.0 nM
# [8] = biological target: LIM domain kinase 2 (Homo sapiens) (UniProt P53671); details: Compound concentration 100.0 nM
# [9] = biological target: Dual specificity protein kinase CLK4 (Homo sapiens) (UniProt Q9HAZ1); details: Compound concentration 100.0 nM
# [10] = biological target: cAMP-dependent protein kinase catalytic subunit beta (Homo sapiens) (UniProt P22694); details: Compound concentration 100.0 nM
# [11] = biological target: G protein-coupled receptor kinase 3 (Homo sapiens) (UniProt P35626); details: Compound concentration 100.0 nM
# [12] = biological target: Myosin light chain kinase (Homo sapiens) (UniProt Q32MK0); details: Compound concentration 100.0 nM
# [13] = biological target: Tyrosine-protein kinase Lck (Homo sapiens) (UniProt P06239); details: Compound concentration 100.0 nM
# [14] = biological target: Mast/stem cell growth factor receptor Kit (Homo sapiens) (UniProt P10721); details: Compound concentration 100.0 nM
# [15] = biological target: Hepatocyte growth factor receptor (Homo sapiens) (UniProt P08581); details: Compound concentration 100.0 nM
# [16] = biological target: Histamine H3 receptor (Homo sapiens) (UniProt Q9Y5N1); details: Compound concentration 10.0 uM
# Histamine H3 receptor (Homo sapiens), sequence (Q9Y5N1 whole entry): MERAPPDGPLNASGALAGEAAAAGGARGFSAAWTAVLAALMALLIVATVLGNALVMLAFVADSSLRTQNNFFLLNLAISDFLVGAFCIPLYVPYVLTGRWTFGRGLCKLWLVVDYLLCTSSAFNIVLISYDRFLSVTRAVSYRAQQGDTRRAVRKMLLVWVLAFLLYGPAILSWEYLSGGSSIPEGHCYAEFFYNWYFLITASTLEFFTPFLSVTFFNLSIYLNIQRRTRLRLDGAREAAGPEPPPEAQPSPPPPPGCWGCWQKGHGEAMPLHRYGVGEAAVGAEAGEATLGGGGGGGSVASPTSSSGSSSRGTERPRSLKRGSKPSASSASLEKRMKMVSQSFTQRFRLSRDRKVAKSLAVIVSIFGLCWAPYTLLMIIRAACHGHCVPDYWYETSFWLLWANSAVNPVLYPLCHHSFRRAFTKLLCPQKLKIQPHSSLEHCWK
# [17] = biological target: Myotonin-protein kinase (Homo sapiens) (UniProt Q09013); details: Compound concentration 100.0 nM
# [18] = biological target: Muscarinic acetylcholine receptor M2 (Homo sapiens) (UniProt P08172); details: Compound concentration 10.0 uM
# [19] = biological target: SRSF protein kinase 3 (Homo sapiens) (UniProt Q9UPE1); details: Compound concentration 100.0 nM
# [20] = biological target: NUAK family SNF1-like kinase 1 (Homo sapiens) (UniProt O60285); details: Compound concentration 100.0 nM
# [21] = tested on: Tyrosine-protein kinase ABL1 (Homo sapiens), P00519 [F317L]; details: Compound concentration 100.0 nM
# [22] = biological target: T1, Serine/threonine-protein kinase Chk1 (Homo sapiens) (UniProt O14757); details: Compound concentration 100.0 nM
# T1 sequence (whole entry): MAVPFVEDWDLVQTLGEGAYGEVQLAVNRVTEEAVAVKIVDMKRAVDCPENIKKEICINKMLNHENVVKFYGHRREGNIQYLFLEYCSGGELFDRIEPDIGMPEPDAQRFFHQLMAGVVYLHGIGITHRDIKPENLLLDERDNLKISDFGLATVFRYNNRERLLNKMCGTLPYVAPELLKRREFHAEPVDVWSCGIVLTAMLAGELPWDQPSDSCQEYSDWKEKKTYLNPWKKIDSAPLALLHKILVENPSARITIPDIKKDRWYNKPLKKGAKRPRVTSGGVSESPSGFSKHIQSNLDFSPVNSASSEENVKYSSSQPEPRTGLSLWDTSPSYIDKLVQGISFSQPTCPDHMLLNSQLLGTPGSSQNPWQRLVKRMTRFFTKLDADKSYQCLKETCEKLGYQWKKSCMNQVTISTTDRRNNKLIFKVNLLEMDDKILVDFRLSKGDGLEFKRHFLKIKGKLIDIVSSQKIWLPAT
# [23] = biological target: Cyclin-dependent kinase 13 (Homo sapiens) (UniProt Q14004); details: Compound concentration 100.0 nM
# [24] = biological target: Ankyrin repeat and protein kinase domain-containing protein 1 (Homo sapiens) (UniProt Q8NFD2); details: Compound concentration 100.0 nM
# [25] = biological target: Proto-oncogene tyrosine-protein kinase ROS (Homo sapiens) (UniProt P08922); details: Compound concentration 100.0 nM
# [26] = tested on: ALK tyrosine kinase receptor (Homo sapiens), Q9UM73 [L1196M]; details: Compound concentration 100.0 nM
# ALK tyrosine kinase receptor (Homo sapiens), Q9UM73 [L1196M], sequence (Q9UM73 whole entry L1196M, looked up): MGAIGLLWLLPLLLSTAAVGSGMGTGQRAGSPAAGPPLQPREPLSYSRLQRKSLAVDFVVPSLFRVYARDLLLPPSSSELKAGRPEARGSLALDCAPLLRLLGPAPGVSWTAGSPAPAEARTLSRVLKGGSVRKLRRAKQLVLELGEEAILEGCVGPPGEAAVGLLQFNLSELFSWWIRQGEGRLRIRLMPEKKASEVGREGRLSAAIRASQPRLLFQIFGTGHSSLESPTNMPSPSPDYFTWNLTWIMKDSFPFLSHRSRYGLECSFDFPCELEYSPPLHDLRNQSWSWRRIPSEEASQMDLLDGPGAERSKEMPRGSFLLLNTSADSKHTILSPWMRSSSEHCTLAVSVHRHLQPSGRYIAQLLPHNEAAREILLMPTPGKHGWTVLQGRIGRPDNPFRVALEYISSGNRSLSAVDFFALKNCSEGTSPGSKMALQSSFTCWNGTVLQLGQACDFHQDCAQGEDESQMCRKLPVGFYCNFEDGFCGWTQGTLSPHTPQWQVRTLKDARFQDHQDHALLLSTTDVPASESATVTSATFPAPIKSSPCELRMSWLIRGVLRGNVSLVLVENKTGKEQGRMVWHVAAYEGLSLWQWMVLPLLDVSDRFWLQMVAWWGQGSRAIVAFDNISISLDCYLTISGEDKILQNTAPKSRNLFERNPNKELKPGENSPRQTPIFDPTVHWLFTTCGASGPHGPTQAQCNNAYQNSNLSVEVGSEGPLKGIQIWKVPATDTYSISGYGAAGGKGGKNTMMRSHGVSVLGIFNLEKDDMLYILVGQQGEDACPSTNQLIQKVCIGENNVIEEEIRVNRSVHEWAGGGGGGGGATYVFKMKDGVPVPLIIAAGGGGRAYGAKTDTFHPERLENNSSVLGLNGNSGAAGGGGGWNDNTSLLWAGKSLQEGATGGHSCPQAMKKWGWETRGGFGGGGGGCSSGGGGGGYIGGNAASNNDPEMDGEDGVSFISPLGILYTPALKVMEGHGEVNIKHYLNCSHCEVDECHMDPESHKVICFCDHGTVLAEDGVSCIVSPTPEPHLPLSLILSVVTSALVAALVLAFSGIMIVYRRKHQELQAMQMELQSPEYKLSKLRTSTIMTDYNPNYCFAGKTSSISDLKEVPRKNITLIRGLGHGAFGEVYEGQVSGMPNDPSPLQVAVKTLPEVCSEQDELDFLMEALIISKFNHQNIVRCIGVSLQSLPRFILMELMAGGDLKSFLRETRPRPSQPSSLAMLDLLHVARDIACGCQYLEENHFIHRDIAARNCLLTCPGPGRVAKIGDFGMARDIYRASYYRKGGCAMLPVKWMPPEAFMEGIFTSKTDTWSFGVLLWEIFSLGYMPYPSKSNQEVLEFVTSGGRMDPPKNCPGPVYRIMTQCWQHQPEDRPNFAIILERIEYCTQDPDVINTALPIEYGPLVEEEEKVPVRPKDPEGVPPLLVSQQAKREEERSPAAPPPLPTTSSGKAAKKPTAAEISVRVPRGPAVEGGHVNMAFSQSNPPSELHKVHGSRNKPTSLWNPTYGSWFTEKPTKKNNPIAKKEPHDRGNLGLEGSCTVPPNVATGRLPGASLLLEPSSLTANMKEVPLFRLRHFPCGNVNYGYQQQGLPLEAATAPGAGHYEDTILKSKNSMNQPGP
# [27] = tested on: Leucine-rich repeat serine/threonine-protein kinase 2 (Homo sapiens), Q5S007 [G2019S]; details: Compound concentration 100.0 nM
# [28] = biological target: Mitogen-activated protein kinase kinase kinase 2 (Homo sapiens) (UniProt Q9Y2U5); details: Compound concentration 100.0 nM
# [29] = biological target: cGMP-dependent protein kinase 1 (Homo sapiens) (UniProt Q13976); details: Compound concentration 100.0 nM
# [30] = biological target: Tyrosine-protein kinase JAK1 (Homo sapiens) (UniProt P23458); details: Compound concentration 100.0 nM
# Tyrosine-protein kinase JAK1 (Homo sapiens), sequence (P23458 whole entry): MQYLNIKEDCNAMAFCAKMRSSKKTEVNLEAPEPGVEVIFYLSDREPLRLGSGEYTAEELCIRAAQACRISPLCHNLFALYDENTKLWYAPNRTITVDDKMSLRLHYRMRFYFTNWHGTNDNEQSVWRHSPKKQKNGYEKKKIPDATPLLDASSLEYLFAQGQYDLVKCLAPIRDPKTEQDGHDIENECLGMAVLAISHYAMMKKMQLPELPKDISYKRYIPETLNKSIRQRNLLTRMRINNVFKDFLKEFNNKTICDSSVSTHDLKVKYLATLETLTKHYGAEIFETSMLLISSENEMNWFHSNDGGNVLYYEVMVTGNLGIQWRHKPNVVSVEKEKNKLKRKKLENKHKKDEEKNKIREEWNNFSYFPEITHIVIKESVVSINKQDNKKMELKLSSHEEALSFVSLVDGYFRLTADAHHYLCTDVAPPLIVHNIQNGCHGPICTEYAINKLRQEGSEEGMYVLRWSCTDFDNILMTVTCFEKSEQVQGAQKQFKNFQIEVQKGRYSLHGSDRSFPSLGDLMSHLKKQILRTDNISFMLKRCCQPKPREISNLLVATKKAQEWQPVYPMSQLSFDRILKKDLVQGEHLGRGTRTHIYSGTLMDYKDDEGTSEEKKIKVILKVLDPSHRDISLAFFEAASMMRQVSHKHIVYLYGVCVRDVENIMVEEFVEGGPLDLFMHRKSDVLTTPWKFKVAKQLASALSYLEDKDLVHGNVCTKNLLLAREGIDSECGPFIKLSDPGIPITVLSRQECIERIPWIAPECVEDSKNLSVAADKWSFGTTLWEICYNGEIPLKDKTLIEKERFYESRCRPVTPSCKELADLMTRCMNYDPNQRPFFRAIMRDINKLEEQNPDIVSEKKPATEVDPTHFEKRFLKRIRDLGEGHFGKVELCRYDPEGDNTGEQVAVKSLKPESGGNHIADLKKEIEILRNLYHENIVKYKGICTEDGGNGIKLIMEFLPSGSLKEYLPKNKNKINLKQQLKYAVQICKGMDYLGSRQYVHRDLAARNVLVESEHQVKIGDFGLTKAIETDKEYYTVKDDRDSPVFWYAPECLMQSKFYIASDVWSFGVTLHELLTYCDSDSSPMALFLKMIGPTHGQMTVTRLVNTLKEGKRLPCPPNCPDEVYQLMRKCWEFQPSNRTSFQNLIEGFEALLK
# [31] = biological target: MAP kinase-activated protein kinase 2 (Homo sapiens) (UniProt P49137); details: Compound concentration 100.0 nM
# [32] = biological target: Ribosomal protein S6 kinase alpha-1 (Homo sapiens) (UniProt Q15418); details: Compound concentration 100.0 nM
# Ribosomal protein S6 kinase alpha-1 (Homo sapiens), sequence (Q15418 whole entry): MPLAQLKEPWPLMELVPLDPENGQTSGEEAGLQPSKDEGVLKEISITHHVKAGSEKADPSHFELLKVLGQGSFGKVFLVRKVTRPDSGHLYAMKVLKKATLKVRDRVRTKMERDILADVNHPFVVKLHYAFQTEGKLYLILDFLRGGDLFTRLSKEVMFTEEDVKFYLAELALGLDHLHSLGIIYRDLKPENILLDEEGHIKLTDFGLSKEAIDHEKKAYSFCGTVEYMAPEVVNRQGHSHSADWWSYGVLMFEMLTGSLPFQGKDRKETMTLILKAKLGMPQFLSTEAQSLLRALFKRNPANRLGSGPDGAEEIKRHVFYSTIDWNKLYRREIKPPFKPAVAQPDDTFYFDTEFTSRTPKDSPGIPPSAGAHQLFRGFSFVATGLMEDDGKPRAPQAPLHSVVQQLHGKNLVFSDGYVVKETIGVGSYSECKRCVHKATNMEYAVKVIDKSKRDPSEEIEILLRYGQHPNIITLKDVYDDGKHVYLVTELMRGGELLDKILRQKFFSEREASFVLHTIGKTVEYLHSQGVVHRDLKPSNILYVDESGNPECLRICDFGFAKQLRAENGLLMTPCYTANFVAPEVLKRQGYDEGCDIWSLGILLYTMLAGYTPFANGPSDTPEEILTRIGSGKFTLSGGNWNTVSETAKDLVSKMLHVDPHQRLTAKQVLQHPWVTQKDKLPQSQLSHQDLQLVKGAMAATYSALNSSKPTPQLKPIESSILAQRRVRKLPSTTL
# [33] = biological target: Tyrosine-protein kinase CSK (Homo sapiens) (UniProt P41240); details: Compound concentration 100.0 nM
# [34] = biological target: SNF-related serine/threonine-protein kinase (Homo sapiens) (UniProt Q9NRH2); details: Compound concentration 100.0 nM
# [35] = biological target: Cyclin-dependent kinase-like 1 (Homo sapiens) (UniProt Q00532); details: Compound concentration 100.0 nM
# [36] = biological target: Mitogen-activated protein kinase 9 (Homo sapiens) (UniProt P45984); details: Compound concentration 100.0 nM
# [37] = biological target: Serine/threonine-protein kinase SBK1 (Homo sapiens) (UniProt Q52WX2); details: Compound concentration 100.0 nM
# Serine/threonine-protein kinase SBK1 (Homo sapiens), sequence (Q52WX2 whole entry): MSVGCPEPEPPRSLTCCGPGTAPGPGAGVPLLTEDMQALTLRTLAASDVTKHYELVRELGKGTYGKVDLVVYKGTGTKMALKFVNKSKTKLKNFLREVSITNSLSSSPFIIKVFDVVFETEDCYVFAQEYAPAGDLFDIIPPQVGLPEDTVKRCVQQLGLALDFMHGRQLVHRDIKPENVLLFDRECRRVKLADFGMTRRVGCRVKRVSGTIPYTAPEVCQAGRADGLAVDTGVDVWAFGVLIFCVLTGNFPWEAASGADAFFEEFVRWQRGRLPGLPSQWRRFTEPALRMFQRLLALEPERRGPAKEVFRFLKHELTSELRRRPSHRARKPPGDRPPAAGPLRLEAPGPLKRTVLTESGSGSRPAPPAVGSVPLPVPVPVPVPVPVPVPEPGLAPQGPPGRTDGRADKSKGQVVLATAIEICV
# [38] = biological target: Serine/threonine-protein kinase TAO1 (Homo sapiens) (UniProt Q7L7X3); details: Compound concentration 100.0 nM
# [39] = biological target: Eukaryotic translation initiation factor 2-alpha kinase 1 (Homo sapiens) (UniProt Q9BQI3); details: Compound concentration 100.0 nM
# Dual specificity mitogen-activated protein kinase kinase 5 (Homo sapiens), sequence (Q13163 whole entry): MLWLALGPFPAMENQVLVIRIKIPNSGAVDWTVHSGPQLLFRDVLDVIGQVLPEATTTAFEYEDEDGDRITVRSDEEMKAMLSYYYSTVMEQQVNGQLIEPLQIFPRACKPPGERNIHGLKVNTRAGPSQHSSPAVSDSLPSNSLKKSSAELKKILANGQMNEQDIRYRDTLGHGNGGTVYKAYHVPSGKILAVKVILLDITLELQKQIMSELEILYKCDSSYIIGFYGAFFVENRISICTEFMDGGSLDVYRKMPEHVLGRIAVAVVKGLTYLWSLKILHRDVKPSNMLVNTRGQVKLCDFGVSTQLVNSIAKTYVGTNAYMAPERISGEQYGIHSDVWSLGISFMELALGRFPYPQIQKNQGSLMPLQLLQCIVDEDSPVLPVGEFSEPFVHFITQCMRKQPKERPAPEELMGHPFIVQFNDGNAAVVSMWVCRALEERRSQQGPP
SMILES,residual activity [1],residual activity [2],residual activity [3],residual activity [4],residual activity [5],residual activity [6],residual activity [7],residual activity [8],residual activity [9],residual activity [10],residual activity [11],residual activity [12],residual activity [13],residual activity [14],residual activity [15],inhibition [16],residual activity [17],inhibition [18],residual activity [19],residual activity [20],also measured
Cn1cc(Cl)c2c(Oc3c(F)cc(Nc4cc(Cl)nc(N)n4)cc3F)ccnc21 [BAY-4900],100%,100%,100%,91%,100%,96%,100%,100%,100%,92%,83%,94%,100%,95%,90%,31%,86%,0.85%,100%,96%,residual activity [21]: 74%; residual activity [22]: 100%; residual activity [23]: 77%; residual activity [24]: 83%; residual activity [25]: 100%; residual activity [26]: 100%; residual activity [27]: 100%; residual activity [28]: 79%; residual activity [29]: 83%; residual activity [30]: 89%; residual activity [31]: 100%; residual activity [32]: 100%; residual activity [33]: 100%; residual activity [34]: 86%; residual activity [35]: 100%; residual activity [36]: 86%; residual activity [37]: 97%; residual activity [38]: 97%; residual activity [39]: 100%
Cc1c[nH]c2nccc(Oc3c(F)cc(Nc4cc(Cl)nc(N)n4)cc3F)c12 [BAY-549],99%,82%,100%,100%,100%,83%,89%,79%,86%,36%,78%,91%,100%,75%,83%,8.13%,56%,7.41%,100%,91%,residual activity [21]: 74%; residual activity [22]: 100%; residual activity [23]: 73%; residual activity [24]: 85%; residual activity [25]: 96%; residual activity [26]: 99%; residual activity [27]: 100%; residual activity [28]: 89%; residual activity [29]: 49%; residual activity [30]: 80%; residual activity [31]: 100%; residual activity [32]: 100%; residual activity [33]: 87%; residual activity [34]: 77%; residual activity [35]: 100%; residual activity [36]: 93%; residual activity [37]: 94%; residual activity [38]: 84%; residual activity [39]: 77%
